Structures are written as SMILES.

For assay [1], the system named is L1210 murine leukemia cells. As to conditions: natural halichondrin B, J. Biol. Chem. 266:15882-15889 (1991), read-out: growth inhibitory effects, IC50; cited from earlier work.
The next assay relates to NIH:OVCAR-3 cells. Description: In vitro growth inhibition, NIH:OVCAR-3 ovarian carcinoma cells. Type of assay: cell-based. As to conditions: NIH:OVCAR-3, human ovarian carcinoma. The protocol: (§1) Synthetic halichondrin B I was tested in growth inhibition assays against several different tumor cell lines to obtain IC50 values. For comparison, the National Cancer Instititute reported growth inhibitory effects of natural halichondrin B against L1210 murine leukemia cells at IC50 =0.3 nM [J. Biol. Chem. 266:15882-15889 (1991)] and Hirata and Uemura reported IC50 =0.08 nM against B-16 murine melanoma cells [Pure Appl. Chem. 58:701-710 (1986)]. Both references are hereby incorporated in their entirety.

For the next assay, the system named is MG-63 cells. Description: In vitro growth inhibition, MG-63 osteosarcoma cells. Type of assay: cell-based. To be noted: MG-63, human osteosarcoma. On the procedure:
as §1

For a further assay, the system named is HT-29 cells. Kind of assay: In vitro growth inhibition, HT-29 colon carcinoma cells. Type of assay: cell-based. As to conditions: HT-29, human colon carcinoma. On the procedure:
as §1

The test system of assay [2] is subcutaneous LOX human melanoma tumors. Description: In vivo anti-tumor effect on subcutaneous LOX human melanoma tumors in nude mice. The protocol: Mice received 1×10^6 LOX cells via s.c. injection on day 0, with complete injection randomization across sexes and treatment groups. On days 3-7 and 10-14, male and female experimental mice received 25 μg/kg of synthetic halichondrin B 1 via i.p. injection in saline; controls received saline alone.

For a further assay, the system named is LOX human melanoma cells. Description: In vitro growth inhibition, LOX melanoma cells. Type of assay: cell-based. To be noted: Table 1, LOX, synthetic halichondrin B. The protocol:
as §1
In addition, several synthetic halichondrin-related compounds were tested. […] For the structures of compounds 13-16, see FIG. 3.

The subject of a further assay is SK-OV-3 cells. Description: In vitro growth inhibition, SK-OV-3 ovarian carcinoma cells. Type of assay: cell-based. To be noted: SK-OV-3, human ovarian carcinoma. The protocol: as §1
The next assay has as its system HL-60 cells. Description: In vitro growth inhibition, HL-60 monocytic leukemia cells. As to conditions: HL-60, human monocytic leukemia. The class given is cell-based. On the procedure:
as §1

In the next assay the test system is Caov-3 cells. Kind of assay: In vitro growth inhibition, Caov-3 ovarian carcinoma cells. The class given is cell-based. As to conditions: Caov-3, human ovarian carcinoma. On the procedure: as §1
For the next assay, the system named is MCF-7 cells. Description: In vitro growth inhibition, MCF-7 breast carcinoma cells. The class given is cell-based. To be noted: MCF-7, human breast carcinoma. On the procedure: as §1
The subject of another assay is DK-l cells. Description: In vitro growth inhibition, DK-l ras-transforming fibroblasts. The class given is cell-based. To be noted: human ras-transforming fibroblasts. On the procedure:
as §1

Assay [3] deals with B-16 murine melanoma cells. As to conditions: Pure Appl. Chem. 58:701-710 (1986), read-out: IC50 against B-16 cells; cited from earlier work.
The next assay deals with OVCA 433 cells. Description: In vitro growth inhibition, OVCA 433 ovarian carcinoma cells. Type of assay: cell-based. To be noted: OVCA 433, human ovarian carcinoma. On the procedure:
as §1

Consider `C=C1C[C@@H]2CC[C@@]34C[C@H]5O[C@H]6[C@@H](O3)[C@H]3O[C@H](CC[C@@H]3O[C@H]6[C@H]5O4)CC(=O)O[C@@H]3[C@@H](C)[C@@H]4O[C@@H]5C[C@]6(C[C@@H]7O[C@]8(C[C@H](C)[C@@H]9O[C@H]([C@@H](O)C[C@@H](O)CO)C[C@@H]9O8)C[C@H](C)[C@@H]7O6)O[C@@H]5C[C@@H]4O[C@H]3C[C@H]3O[C@@H](CC[C@@H]1O2)C[C@@H](C)C3=C` [halichondrin B], for which the IC50 in assay [1] is 0.3 nM; with NIH:OVCAR-3 cells it was 0.06 nM; in the assay with MG-63 cells it was 0.13 nM; in the assay on HT-29 cells it was 0.19 nM; with LOX human melanoma cells it was 0.08 nM; in the assay on SK-OV-3 cells, 0.12 nM. For the same compound, the IC50 in the assay with HL-60 cells was 0.12 nM; in the assay on Caov-3 cells it was 0.25 nM; in the assay on MCF-7 cells, 0.2 nM; with DK-l cells it was 0.18 nM; in [3], 0.08 nM; in the assay with OVCA 433 cells, 0.16 nM. The tumor growth result in assay [2] (25 μg/kg i.p. in saline, days 3-7 and 10-14, both sexes) is on record as “prevented tumor growth almost completely in both sexes”. In assay [2] (25 μg/kg i.p., days 3-7 and 10-14, after initial development into visible but very small tumors), the “tumor growth after initial development period” value was “failed to grow after an initial period of development into visible but very small tumors”. For the same compound, the tumor regression entry in [2] (25 μg/kg i.p., after the initial development period) is recorded as “actually regressed”.

As usually defined, the IC50 is the concentration at which inhibition is half-maximal.

The record behind these values is patent publication US5436238A, “Halichondrins and related compounds” (President and Fellows of Harvard College, priority 1993, dated 1995).
